Assay results: patent US10723716B2, “Alpha-helix mimetics as modulators of Abeta self-assembly” (New York University, priority 2016, dated 2020)
“Also recorded” adds a separate entry of the source.

How the values were obtained:
[1] = target: T1, IAPP (Homo sapiens, UniProt P10997); experiment: ThT-based kinetic assay of IAPP aggregation; assay type: biochemical; conditions: for effect on IAPP fibrillation / amyloid formation (ThT): equimolar ratio (IAPP 10 μM, FIG. 25c, 26c, 27m)
T1 construct: purchased Anaspec (Fremont, Calif., USA)
T1 sequence (P10997 34-70 limits assumed): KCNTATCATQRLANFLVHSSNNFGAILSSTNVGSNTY
Experimental: Kinetic assays were conducted on a FlexStation 3 Multi-Mode Microplate reader from Molecular Devices (Sunnyvale, Calif., USA). Experiments were conducted in triplicate in a 96-well plate with a final volume of 200 μL per well. Every measurement was an average of 50 readings. The aggregation of an amyloidogenic peptide (Aβ40, Aβ42, or IAPP) was initiated by the addition of the peptide from a stock solution (in DMSO, 0.5-1 mM) to phosphate buffer. The final concentration of each peptide was different based on their aggregation. The stoichiometry of ThT dye for each peptide was 0.5:1 (ThT:peptide). Peptide aggregation was monitored by ThT fluorescence (λex=445 nm and λem=485 nm). The blank sample contained all the components of the peptide samples except the peptide. The sample data were processed by subtracting the fluorescence of the blank sample. The fluorescence intensity data was then normalized by setting the maximum value to 1.
Kinetic assays in the presence of the compounds of the invention were conducted under the same conditions. The small molecules were added from a stock solution (1 mM or 10 mM in DMSO) to keep the final concentration of DMSO less than 1.0% (v/v). Small molecules were added to the wells with ThT and buffer and mixed gently with a pipette before adding the peptide. To keep the conditions identical, an equal amount of DMSO was added to the wells with the peptide-only control reactions.
Kinetic profiles were processed using Origin (version 9.1). Kinetic curves were fit using the built-in sigmoidal fit. Each run was fit independently to extract the t50 (time required to reach 50% of the maximum fluorescence intensity). Error bars represent standard deviations from the mean of at least three independent experiments.

[2] = tested on: Aβ42 mediated toxicity in mouse neuroblastoma (N2a) cells; experiment: Aβ42 mediated toxicity in Neuro-2a cells (MTS cell viability); assay type: cell-based; conditions: for cell viability: 5 μM Aβ42, equimolar ratio, 72 h; for effect on Aβ42 mediated cytotoxicity: equimolar ratio, Neuro-2a cells
Experimental: Cell viability was determined using a CellTiter 96® AQueous One Solution Cell Proliferation Assay (MTS) kit (Promega), which measures the reduction of the tetrazolium compound MTS (3-(4,5-dimethylthiazol-2-yl)-5-(3-carboxymethoxyphenyl)-2-(4-sulfophenyl)-2H-tetrazolium, inner salt) to soluble formazan by mitochondrial dehydrogenase enzyme in living cells. Formazan can be measured at 490 nm according to the manufacturer's instructions.
Neuro-2a cells (ATCC® […]) were maintained in serum-containing media [Dulbecco's Modified Eagle's Medium—high glucose (DMEM, Sigma) supplemented with 10% foetal bovine serum (FBS), 4 mM L-Glutamine (Sigma), and 1% penicillin/streptomycin (Sigma)] in 5% CO2 at 37° C. Once the cells reached ˜95% confluence, they were split (using 0.25% trypsin-EDTA, Sigma, St. Louis, USA), seeded at a density of 5×10^3 cells/well in 100 μL complete medium in 96-well plates and cultured for 48 h. Thereafter, the media was removed, the cells washed with phosphate buffered saline (PBS), and 90 μL of serum-free DMEM was added to the wells. A solution (A) containing 50 μM Aβ42 in NaOH (pH 10.5) was prepared and kept on ice, and a solution (B) containing 50 μM of the oligopyridylamide compound, H2O (2.33 μL/well) and 1× and 10×PBS was prepared and kept at room temperature. The solutions were combined, vortexed and 10 μL of this solution immeadiatly added to each well. The final concentrations in the wells were: 5 μM Aβ42, 5 μM oligopyridylamide, 200 μM NaOH, 0.1×PBS and 0.5% (v/v) DMSO.
To investigate the toxic effect of the peptide alone on cell viability, solution (B) without the oligopyridylamide compound was mixed with solution (A), while the effect of the oligopyridylamide compound alone was determined by adding solution (A) without peptide to solution (B). The effect of oligopyridylamides on seed-catalyzed Aβ42 aggregation was probed by preparing an additional solution (C) containing 0.5 μM seeds. The volume contributed by solution (C) was taken into account in preparing solution (B). Solution (C) was mixed with solution (B), and the resulting mixture was then added to solution (A) shortly before addition to the wells. To study the effect of oligopyridylamides on the oligomeric states of Aβ42, solution (A) was mixed with solution (B) without inhibitor and incubated at room temperature for 1, 2 or 3 h. Subsequently, 50 μM oligopyridylamides was added to the mixture, which was then immediately added to the cells. After culturing for 72 h in 5% CO2 at 37° C., 20 μL of MTS reagent was added to each well. The MTS reagent was incubated for 2.5 h at 37° C., and absorbance of the soluble formazan product (λ=490 nm) of MTS reduction was measured on a Synergy H1MF Multi-Mode microplate-reader (BioTek, Winooski, Vt., USA), with a reference wavelength of 650 nm to subtract the background. Wells treated with a solution containing serum-free DMEM, 200 μM NaOH, 0.1×PBS and 0.5% (v/v) DMSO served as control. MTS reduction was determined from the ratio of the absorbance of the treated wells to the control wells. Each data point represents an average of four independent quadruplet-well trials.

[3] = tested on: IAPP mediated toxicity in rat INS-1 cells; experiment: IAPP mediated toxicity in INS-1 cells; assay type: cell-based; conditions: equimolar ratio
[4] = compound added to 5 μM Aβ42 after 1 h from start of amyloid reaction, Aβ42 alone 46%
[5] = compound added to 5 μM Aβ42 after 2 h from start of amyloid reaction, Aβ42 alone 57%
[6] = compound added to 5 μM Aβ42 after 3 h from start of amyloid reaction, Aβ42 alone 62%

Compound | effect on IAPP fibrillation / amyloid formation (ThT) [1] | cell viability [2] | cell viability, preformed Aβ42 oligomers [2, 4] [%] | cell viability, preformed Aβ42 oligomers [2, 5] [%] | cell viability, preformed Aβ42 oligomers [2, 6] [%] | effect on Aβ42 mediated cytotoxicity [2] | cell viability ([3]; IAPP, INS-1 cells, IAPP alone 65±6%) [%] | effect on aggregation of IAPP (ThT) ([1]; 20 μM IAPP, equimolar ratio (FIG. 3b, 3c, 13)) | rank order for the antagonist activity ([2]; Aβ42 mediated cytotoxicity and aggregation, 5 μM, 1:1 (FIG. 26a)) | effect on IAPP mediated toxicity ([3]; rat INS-1 cells)
COC(=O)c1ccc(NC(=O)c2ccc(NC(=O)c3ccc(NC(=O)c4ccc([N+](=O)[O-])c(OCC(C)C)n4)c(OCc4ccccc4)n3)c(OCC(=O)O)n2)c(OCC(=O)O)n1 [ADH-31] | completely suppressed | 97%±1% | 90 | 89 | 95 | effective at rescuing cells | 98±4 |  |  | 
COC(=O)c1ccc(NC(=O)c2ccc(NC(=O)c3ccc([N+](=O)[O-])c(OCc4ccccc4)n3)c(OCCCN)n2)c(OCCCN)n1 [ADH-41] | did not have any effect; also recorded: no effect | 98±2% | 72 | 68 | 67 | completely inhibited; also recorded: effective at rescuing cells; also recorded: equally effective; also recorded: completely rescues |  | agonist | ADH41>ADH46>ADM-40≥ADM-45A | did not have any effect; also recorded: no effect
